Reference: publication PMC10176470, “Engaging a Non-catalytic Cysteine Residue Drives Potent and Selective Inhibition of Caspase-6” (Journal of the American Chemical Society, 2023)

Key:
Type in all cases: cell-based
[1] = molecular target: proteins of HEK293T cells transiently overexpressing caspase-6 (Homo sapiens, UniProt P13667); details: Probe; protein PDIA4 P13667
[2] = molecular target: T1, proteins of HEK293T cells transiently overexpressing caspase-6 (Homo sapiens, UniProt O43175); details: protein PHGDH (O43175)
T1 sequence (O43175 1-533): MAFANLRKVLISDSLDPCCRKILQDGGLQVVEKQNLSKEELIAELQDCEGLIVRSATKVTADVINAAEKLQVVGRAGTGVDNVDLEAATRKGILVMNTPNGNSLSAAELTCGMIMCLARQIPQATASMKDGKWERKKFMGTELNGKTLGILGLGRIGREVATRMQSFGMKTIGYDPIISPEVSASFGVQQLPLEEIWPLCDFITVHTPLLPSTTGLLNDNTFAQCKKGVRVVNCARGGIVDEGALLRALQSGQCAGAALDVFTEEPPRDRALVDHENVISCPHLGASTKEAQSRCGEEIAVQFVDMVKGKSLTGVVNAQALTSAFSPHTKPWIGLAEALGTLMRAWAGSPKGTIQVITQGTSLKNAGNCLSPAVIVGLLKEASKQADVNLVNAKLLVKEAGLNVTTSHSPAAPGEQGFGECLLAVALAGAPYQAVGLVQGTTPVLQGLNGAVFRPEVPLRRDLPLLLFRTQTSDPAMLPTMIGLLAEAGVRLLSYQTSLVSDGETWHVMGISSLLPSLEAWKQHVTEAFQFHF

[3] = molecular target: proteins of HEK293T cells transiently overexpressing caspase-6 (Homo sapiens, UniProt P12956); details: protein XRCC6 (P12956)
[4] = molecular target: proteins of HEK293T cells transiently overexpressing caspase-6 (Homo sapiens, UniProt Q9H3N1); details: protein TMX1 (Q9H3N1); exp_ref Probe; analysis C6
[5] = system: proteins of HEK293T cells transiently overexpressing caspase-6; details: exp_ref Probe; protein CBSL (P0DN79); analysis C6
[6] = molecular target: T2, proteins of HEK293T cells transiently overexpressing caspase-6 (Homo sapiens, UniProt P30048)
T2 sequence (P30048 62-256): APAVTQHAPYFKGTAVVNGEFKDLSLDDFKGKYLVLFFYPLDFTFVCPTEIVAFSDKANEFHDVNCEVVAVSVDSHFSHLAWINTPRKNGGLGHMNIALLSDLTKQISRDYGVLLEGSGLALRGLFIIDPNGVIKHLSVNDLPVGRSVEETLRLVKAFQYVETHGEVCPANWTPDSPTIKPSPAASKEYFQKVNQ

[7] = molecular target: proteins of HEK293T cells transiently overexpressing caspase-6 (Homo sapiens, UniProt P46379); details: exp_ref Probe; protein BAG6 (P46379); analysis C6
[8] = molecular target: proteins of HEK293T cells transiently overexpressing caspase-6 (Homo sapiens, UniProt P13797); details: exp_ref Probe; protein PLS3 (P13797); analysis C6
[9] = molecular target: proteins of HEK293T cells transiently overexpressing caspase-6 (Homo sapiens, UniProt P04264); details: Probe; protein KRT1 P04264
[10] = molecular target: proteins of HEK293T cells transiently overexpressing caspase-6 (Homo sapiens, UniProt P24752); details: Probe; protein ACAT1 P24752
[11] = molecular target: proteins of HEK293T cells transiently overexpressing caspase-6 (Homo sapiens, UniProt P62805)
[12] = molecular target: T3, proteins of HEK293T cells transiently overexpressing caspase-6 (Homo sapiens, UniProt Q15942)
T3 sequence (Q15942 1-572): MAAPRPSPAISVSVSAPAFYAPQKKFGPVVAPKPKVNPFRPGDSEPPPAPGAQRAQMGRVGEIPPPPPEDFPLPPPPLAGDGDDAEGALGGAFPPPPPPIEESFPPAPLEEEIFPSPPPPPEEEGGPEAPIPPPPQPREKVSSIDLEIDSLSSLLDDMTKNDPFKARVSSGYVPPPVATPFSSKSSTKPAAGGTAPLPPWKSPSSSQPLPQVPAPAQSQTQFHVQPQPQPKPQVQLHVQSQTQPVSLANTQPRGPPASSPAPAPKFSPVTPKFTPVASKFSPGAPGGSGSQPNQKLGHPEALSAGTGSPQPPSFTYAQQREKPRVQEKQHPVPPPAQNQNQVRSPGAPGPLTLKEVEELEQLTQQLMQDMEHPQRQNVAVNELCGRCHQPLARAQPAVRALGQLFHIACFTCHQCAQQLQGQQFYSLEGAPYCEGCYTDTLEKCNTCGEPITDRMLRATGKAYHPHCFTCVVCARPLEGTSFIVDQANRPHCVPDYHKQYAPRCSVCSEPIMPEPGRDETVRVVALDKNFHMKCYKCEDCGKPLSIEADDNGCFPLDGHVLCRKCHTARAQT

[13] = molecular target: proteins of HEK293T cells transiently overexpressing caspase-6 (Homo sapiens, UniProt Q15185); details: exp_ref Probe; protein PTGES3 (Q15185); analysis C6
[14] = molecular target: proteins of HEK293T cells transiently overexpressing caspase-6 (Homo sapiens, UniProt Q99798); details: exp_ref Probe; protein ACO2 (Q99798); analysis C6
[15] = molecular target: proteins of HEK293T cells transiently overexpressing caspase-6 (Homo sapiens, UniProt P00558); details: exp_ref Probe; protein PGK1 (P00558); analysis C6
[16] = molecular target: proteins of HEK293T cells transiently overexpressing caspase-6 (Homo sapiens, UniProt P14174); details: Probe; protein MIF P14174

Chain of proteins of HEK293T cells transiently overexpressing caspase-6 (Homo sapiens, UniProt P12956) (P12956 whole entry): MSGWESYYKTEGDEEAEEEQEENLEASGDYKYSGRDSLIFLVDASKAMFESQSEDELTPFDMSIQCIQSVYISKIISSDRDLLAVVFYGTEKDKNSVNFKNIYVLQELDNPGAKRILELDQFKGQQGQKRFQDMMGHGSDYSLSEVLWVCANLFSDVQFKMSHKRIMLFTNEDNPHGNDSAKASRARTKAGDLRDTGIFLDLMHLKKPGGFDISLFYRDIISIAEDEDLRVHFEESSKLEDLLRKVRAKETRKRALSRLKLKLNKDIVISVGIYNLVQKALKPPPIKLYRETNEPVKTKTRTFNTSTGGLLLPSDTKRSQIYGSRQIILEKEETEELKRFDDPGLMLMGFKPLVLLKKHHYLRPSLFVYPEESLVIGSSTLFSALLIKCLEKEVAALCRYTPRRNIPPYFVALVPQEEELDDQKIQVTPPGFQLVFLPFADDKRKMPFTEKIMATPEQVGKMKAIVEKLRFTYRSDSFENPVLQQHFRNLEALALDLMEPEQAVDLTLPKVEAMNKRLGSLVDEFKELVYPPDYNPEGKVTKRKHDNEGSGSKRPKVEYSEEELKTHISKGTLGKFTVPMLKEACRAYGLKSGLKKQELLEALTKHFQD
Chain of proteins of HEK293T cells transiently overexpressing caspase-6 (Homo sapiens, UniProt Q15185) (Q15185 whole entry): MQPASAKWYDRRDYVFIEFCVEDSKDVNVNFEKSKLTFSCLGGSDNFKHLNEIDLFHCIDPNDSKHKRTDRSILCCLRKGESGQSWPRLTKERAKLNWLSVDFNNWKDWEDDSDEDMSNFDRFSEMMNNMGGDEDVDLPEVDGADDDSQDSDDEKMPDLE
Chain of proteins of HEK293T cells transiently overexpressing caspase-6 (Homo sapiens, UniProt Q99798) (Q99798 28-780): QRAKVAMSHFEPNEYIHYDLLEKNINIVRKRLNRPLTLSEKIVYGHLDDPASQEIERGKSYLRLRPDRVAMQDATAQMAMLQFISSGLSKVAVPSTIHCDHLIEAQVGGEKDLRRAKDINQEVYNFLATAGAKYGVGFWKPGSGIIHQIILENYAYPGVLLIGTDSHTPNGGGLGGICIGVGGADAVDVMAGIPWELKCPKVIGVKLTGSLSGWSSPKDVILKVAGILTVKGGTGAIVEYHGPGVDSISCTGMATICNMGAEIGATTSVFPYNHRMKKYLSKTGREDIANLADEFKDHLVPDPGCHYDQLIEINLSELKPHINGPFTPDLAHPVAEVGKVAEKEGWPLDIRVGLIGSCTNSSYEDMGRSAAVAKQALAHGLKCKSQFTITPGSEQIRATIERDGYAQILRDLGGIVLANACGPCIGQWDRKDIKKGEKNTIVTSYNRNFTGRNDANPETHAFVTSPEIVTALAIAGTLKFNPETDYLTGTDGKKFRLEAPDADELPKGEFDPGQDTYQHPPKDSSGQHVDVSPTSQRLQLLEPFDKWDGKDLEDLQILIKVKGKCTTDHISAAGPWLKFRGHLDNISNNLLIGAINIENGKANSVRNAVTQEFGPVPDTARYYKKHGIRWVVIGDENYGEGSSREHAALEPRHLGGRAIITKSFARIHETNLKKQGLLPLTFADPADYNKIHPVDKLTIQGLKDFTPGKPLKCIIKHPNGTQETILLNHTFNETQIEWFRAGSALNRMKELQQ
Chain of proteins of HEK293T cells transiently overexpressing caspase-6 (Homo sapiens, UniProt P24752) (P24752 34-427): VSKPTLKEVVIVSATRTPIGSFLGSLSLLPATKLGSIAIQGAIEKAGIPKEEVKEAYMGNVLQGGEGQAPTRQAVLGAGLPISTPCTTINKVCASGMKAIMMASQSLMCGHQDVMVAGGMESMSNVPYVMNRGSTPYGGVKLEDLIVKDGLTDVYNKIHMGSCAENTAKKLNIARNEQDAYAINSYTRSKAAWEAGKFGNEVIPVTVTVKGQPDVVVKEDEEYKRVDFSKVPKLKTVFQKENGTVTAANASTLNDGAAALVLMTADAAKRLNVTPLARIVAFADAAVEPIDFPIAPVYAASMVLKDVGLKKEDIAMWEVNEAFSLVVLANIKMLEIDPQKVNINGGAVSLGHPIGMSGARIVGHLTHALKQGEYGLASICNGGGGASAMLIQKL
Chain of proteins of HEK293T cells transiently overexpressing caspase-6 (Homo sapiens, UniProt P13797) (P13797 whole entry): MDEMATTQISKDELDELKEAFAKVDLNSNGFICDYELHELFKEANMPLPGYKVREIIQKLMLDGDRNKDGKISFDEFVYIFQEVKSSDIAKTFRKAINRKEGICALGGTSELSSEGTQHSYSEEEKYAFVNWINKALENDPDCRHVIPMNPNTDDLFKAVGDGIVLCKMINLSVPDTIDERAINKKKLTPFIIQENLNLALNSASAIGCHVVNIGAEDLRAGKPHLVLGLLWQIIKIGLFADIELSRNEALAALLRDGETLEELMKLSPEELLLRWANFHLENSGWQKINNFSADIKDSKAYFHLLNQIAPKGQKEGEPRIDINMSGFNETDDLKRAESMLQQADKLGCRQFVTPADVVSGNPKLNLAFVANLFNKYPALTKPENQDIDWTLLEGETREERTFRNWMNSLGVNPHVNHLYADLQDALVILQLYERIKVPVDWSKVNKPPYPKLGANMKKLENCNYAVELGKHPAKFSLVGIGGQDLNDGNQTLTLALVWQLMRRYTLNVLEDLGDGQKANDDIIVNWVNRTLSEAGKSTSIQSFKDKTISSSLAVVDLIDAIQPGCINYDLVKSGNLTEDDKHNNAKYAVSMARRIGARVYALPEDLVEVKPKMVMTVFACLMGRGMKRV
Chain of proteins of HEK293T cells transiently overexpressing caspase-6 (Homo sapiens, UniProt P13667) (P13667 21-645): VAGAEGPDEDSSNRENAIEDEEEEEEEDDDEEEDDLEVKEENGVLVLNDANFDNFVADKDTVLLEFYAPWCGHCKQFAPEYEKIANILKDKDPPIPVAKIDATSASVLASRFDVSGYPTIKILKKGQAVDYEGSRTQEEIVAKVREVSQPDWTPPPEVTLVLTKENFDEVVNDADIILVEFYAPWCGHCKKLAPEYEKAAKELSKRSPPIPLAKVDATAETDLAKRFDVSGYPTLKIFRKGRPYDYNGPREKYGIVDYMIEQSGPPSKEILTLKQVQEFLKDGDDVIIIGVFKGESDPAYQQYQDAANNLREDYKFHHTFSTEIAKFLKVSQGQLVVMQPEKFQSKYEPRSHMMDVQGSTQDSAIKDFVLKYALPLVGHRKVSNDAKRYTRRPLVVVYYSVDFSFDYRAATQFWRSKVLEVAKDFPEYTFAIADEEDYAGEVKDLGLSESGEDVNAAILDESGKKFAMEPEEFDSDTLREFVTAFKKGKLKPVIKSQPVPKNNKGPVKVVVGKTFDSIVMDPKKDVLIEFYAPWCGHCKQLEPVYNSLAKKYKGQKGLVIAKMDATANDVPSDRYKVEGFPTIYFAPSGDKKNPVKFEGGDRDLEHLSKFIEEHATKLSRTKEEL
Chain of proteins of HEK293T cells transiently overexpressing caspase-6 (Homo sapiens, UniProt P04264) (P04264 whole entry): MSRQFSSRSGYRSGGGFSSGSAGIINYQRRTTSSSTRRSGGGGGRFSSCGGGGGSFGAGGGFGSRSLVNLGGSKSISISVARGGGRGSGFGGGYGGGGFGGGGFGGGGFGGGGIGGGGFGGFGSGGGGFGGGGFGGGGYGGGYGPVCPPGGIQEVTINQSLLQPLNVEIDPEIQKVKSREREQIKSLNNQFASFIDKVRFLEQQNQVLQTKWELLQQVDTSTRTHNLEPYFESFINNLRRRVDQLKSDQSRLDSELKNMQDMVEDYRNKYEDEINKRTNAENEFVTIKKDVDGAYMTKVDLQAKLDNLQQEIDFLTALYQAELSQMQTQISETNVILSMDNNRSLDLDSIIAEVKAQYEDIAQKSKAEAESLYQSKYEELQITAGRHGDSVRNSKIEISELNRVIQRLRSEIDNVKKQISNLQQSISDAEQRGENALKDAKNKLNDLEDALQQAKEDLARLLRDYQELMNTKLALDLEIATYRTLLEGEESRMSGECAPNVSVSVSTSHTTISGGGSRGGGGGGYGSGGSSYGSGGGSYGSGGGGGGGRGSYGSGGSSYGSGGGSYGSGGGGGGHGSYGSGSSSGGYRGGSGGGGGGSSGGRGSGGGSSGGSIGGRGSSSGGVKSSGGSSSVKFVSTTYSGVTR
Chain of proteins of HEK293T cells transiently overexpressing caspase-6 (Homo sapiens, UniProt P46379) (P46379 whole entry): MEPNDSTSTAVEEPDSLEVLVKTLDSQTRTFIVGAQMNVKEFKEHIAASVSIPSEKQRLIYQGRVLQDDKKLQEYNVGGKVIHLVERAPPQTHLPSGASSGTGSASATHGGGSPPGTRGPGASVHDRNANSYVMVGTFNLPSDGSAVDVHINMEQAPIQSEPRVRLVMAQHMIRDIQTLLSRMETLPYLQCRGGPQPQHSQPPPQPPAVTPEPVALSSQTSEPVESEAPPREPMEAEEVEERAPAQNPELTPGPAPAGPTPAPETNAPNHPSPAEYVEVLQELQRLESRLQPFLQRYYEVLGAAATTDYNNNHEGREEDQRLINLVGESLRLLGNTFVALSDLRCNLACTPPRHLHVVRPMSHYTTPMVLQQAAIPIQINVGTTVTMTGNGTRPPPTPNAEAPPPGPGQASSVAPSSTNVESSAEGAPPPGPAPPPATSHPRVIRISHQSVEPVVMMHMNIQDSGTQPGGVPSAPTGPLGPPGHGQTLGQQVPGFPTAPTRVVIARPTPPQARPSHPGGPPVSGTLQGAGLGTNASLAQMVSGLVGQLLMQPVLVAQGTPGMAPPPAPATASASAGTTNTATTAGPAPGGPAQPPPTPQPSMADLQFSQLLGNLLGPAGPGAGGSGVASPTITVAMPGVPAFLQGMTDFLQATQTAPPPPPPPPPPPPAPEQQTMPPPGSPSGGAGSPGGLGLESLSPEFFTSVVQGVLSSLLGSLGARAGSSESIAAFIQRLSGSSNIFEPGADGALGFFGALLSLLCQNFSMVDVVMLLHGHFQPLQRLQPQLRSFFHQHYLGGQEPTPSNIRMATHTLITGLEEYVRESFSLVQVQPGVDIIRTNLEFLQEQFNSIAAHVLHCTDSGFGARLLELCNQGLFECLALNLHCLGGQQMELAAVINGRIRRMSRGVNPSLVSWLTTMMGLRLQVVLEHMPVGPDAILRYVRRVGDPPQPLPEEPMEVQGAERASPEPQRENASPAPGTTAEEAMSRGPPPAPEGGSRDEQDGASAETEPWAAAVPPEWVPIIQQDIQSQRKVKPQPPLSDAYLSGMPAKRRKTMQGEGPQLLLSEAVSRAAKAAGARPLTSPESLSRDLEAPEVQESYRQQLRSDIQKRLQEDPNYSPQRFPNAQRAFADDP

Molecule `C#CCOc1ccc([C@@H]2C[C@@H](C(=O)Nc3ccc(OC(F)(F)F)cc3)CN(S(=O)(=O)C=C)C2)cc1` (relative stereo) [13-t] has an enrich.exp.med [1] of -0.4487, an enrich.exp.med ([2]; exp_ref Probe, analysis C6) of 1.1798 and an enrich.exp.med.lin [2] of 2.265. The enrich.exp.med.log2 [2] was 1.1798, the enrich.exp.med ([3]; exp_ref Probe, analysis C6) was 1.036 and the enrich.exp.med.lin [3] was 2.05. It also gave an enrich.exp.med.log2 [3] of 1.036, an enrich.exp.med [4] of 2.103 and an enrich.exp.med [5] of -0.1387. The enrich.exp.med ([6]; Probe, protein PRDX3 P30048) was -1.058, the enrich.exp.med.lin ([6]; protein PRDX3 (P30048)) was 0.4804 and the enrich.exp.med.log2 ([6]; protein PRDX3 (P30048)) was -1.058. For the same molecule, the enrich.exp.med [7] was 0.9575, the enrich.exp.med [8] was 0.7997 and the enrich.exp.med [9] was -8.014. For the same molecule, the enrich.exp.med [10] was -1.066, the enrich.exp.med ([11]; Probe, protein HIST1H4A P62805) was -2.533 and the enrich.exp.med.lin ([11]; protein HIST1H4A (P62805)) was 0.1728. It also gave an enrich.exp.med.log2 ([11]; protein HIST1H4A (P62805)) of -2.533, an enrich.exp.med ([12]; Probe, protein ZYX Q15942) of -1.696 and an enrich.exp.med.lin ([12]; protein ZYX (Q15942)) of 0.3087. For the same molecule, the enrich.exp.med.log2 ([12]; protein ZYX (Q15942)) was -1.696, the enrich.exp.med [13] was 1.128 and the enrich.exp.med [14] was -0.3317. For the same molecule, the enrich.exp.med [15] was 0.1871 and the enrich.exp.med [16] was -1.906.
